Columns and labels:
SMARCA2 = target: T1, SMARCA2 (Homo sapiens, UniProt P51531); test: HiBiT assay, degradation profiles; assay type: cell-based; details: VHL-recruiting degrader
T1 construct: luminescence-based reporter assays with endogeneous HiBiT-tagged proteins have been developed that yield degradation profiles; endogenous in cells
Text: To monitor the intracellular degradation, luminescence-based reporter assays with endogeneous HiBiT-tagged proteins have been developed that yield degradation profiles, from which maximum degradation levels (Dmax) as well as the half-maximum degradation concentration (DC50) can be derived to estimate the potency of a degrader molecule,[48] which is instrumental in degrader design (see Section 4.2). As a matter of fact, variants of this technology are applied to characterize the different steps in TPD, such as target engagement, ternary complex formation, and target ubiquitination,[115] providing complementary kinetic information to the other experimental approaches discussed.
Figure 6 lists all of our designs in this study (Linkers 1–6) along with ACBI1, a previously optimized VHL-recruiting degrader of SMARCA2.[28] Informed by the random forest classifier, which was trained and validated on about 100 known compounds (model accuracy of 83%), the designs generally involve rigid linkers that contain (aromatic) ring structures with low molecular weight. […] By contrast, 34 designs that incorporated typical alkyl and PEG linkers spanning 4 to ∼20 atoms as well as known linker moieties, such as triazoles and phenyl rings (o, m, or p-substituted to provide different geometries), only produced two active degraders.
Figure 7 Experimental confirmation of degrader designs. […]

[1] = target: SMARCA2-VHL ternary complex (Homo sapiens, UniProt P40337+P51531); test: AlphaLISA assay measuring ternary complex formation; assay type: binding
Text: Competitive-binding and proximity-based assays can also probe the degree of degrader–POI engagement or ternary complex formation (Table 1), thus allowing the determination of binding affinities and cooperativity. These techniques measure changes in the polarization of a fluorescently labeled target protein upon binding to a degrader, as in fluorescence polarization (FP),[85] or detect intensity changes, upon ternary complex formation, in the fluorescence or luminescence signal emitted from beads tagged to the POI or E3 ligase, as in time-resolved Förster resonance energy-transfer (TR-FRET)[86] or in the amplified luminescent proximity homogeneous assay (ALPHA).[87] In the proximity ligation assay (PLA), a technology that is gaining popularity in TPD research, the signal is even further amplified through antibody-attached oligonucleotide hybridization.[88] These methods have been used in TPD studies for the identification of selective degraders and for the high-throughput screening of degrader designs.[39]−[41],[89] In particular, ALPHA has a high dynamic range and signal-to-noise ratio and, when applied in a titration experiment (usually set up as an immunoassay called AlphaLISA), it yields relative populations of ternary complexes as a function of degrader concentration and is routinely employed as a tool in degrader design projects (see Section 4.2). […]

T1 sequence (P51531 whole entry): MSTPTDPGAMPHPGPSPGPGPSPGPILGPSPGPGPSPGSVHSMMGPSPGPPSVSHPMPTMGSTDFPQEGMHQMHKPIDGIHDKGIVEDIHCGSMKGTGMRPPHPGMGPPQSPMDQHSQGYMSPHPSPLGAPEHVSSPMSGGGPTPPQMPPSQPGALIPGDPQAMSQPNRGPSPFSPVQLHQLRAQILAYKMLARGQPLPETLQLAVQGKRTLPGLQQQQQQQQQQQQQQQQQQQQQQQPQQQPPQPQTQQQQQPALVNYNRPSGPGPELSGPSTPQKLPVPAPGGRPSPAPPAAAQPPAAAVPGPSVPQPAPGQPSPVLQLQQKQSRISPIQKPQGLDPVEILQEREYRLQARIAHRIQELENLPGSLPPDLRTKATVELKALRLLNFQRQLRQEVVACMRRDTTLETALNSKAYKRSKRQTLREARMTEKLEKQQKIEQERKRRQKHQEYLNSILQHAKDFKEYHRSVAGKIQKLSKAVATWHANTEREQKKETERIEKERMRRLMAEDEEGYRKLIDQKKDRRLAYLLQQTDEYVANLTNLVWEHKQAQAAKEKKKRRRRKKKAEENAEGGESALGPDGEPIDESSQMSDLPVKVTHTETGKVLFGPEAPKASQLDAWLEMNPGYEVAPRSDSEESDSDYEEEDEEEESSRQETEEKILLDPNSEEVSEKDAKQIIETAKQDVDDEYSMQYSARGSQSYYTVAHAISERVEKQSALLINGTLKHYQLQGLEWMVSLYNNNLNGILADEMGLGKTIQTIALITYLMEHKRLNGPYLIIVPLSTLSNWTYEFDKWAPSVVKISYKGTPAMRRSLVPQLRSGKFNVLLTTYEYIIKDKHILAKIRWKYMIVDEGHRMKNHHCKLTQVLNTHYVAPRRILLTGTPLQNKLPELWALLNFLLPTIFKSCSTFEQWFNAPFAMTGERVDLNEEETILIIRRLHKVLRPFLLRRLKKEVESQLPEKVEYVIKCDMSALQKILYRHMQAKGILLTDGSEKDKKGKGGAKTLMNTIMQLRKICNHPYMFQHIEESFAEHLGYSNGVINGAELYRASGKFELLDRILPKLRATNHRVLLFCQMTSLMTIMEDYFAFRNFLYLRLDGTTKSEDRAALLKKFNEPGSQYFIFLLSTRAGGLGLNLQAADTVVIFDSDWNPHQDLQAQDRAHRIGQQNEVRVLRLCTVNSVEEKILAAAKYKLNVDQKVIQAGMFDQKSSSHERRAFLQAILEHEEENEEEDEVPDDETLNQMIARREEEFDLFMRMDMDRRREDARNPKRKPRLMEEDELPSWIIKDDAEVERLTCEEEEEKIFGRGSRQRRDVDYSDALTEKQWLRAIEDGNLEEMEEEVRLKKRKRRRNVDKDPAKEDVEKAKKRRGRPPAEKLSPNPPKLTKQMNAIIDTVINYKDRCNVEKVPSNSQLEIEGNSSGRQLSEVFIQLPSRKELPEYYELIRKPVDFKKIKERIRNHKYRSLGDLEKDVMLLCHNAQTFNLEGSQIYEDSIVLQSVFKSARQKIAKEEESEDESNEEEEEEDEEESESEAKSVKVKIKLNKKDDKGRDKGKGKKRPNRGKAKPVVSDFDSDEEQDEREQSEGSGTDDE
Sequence of SMARCA2-VHL ternary complex (P51531 1373-1511 limits assumed): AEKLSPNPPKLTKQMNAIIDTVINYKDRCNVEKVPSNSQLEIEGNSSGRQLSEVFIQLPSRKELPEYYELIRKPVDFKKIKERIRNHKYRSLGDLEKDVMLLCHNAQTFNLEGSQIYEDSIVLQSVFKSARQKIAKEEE
Sequence of SMARCA2-VHL ternary complex (P40337 54-213 limits assumed): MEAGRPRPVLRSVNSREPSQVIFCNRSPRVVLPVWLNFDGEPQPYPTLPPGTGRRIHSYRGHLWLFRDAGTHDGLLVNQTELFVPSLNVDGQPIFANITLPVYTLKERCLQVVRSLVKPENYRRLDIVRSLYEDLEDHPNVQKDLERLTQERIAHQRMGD
Sequence of SMARCA2-VHL ternary complex (Q15369 17-112 partner limits assumed): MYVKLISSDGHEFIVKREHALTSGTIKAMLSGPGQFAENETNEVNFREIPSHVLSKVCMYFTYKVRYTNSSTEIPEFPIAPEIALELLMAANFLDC
Sequence of SMARCA2-VHL ternary complex (Q15370 1-104 partner limits assumed): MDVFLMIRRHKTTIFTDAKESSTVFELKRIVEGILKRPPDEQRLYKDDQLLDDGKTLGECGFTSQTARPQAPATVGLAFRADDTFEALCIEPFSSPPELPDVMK

- DC50 (SMARCA2): 37 nM
- Dmax (SMARCA2): 94%
- AlphaLISA (% of control) [1]: 100 % of control
SMILES: Cc1ncsc1-c1ccc(CNC(=O)[C@@H]2C[C@@H](O)CN2C(=O)[C@@H](NC(=O)C2(F)CC2)C(C)(C)C)c(OCCOc2ccc(CN3CCN(c4cc(-c5ccccc5O)nnc4N)CC3)cc2)c1 [ACBI1]
